Results published in patent publication US10426758B2, “Sibiriline derivatives for use for preventing and/or treating disorders associated with cellular necroptosis” (Institut National de la Sante et de la Recherche Medicale …, priority 2015, dated 2019).

Columns and labels:
[1] = tested on: Jurkat FADD-deficient I 2.1 cell line; assay: Cell-based screening: TNF-α-induced necroptosis in Jurkat FADD-deficient cells, MTS viability assay; parameters: species or system human
Source text: TNF-α can induce necroptosis in Jurkat cells (human T lymphocytes) when FADD is deleted. This model was used to screen various libraries of chemical compounds for characterization of new inhibitors of cellular necroptosis. Details on this cell-based assay can be found in (Miao and Degterev, Methods Mol. Biol. 2009, 559, 79-93). The Jurkat FADD-deficient I 2.1 cell line used was purchased from ATCC and was maintained in RPMI 1640 medium (Gibco) containing Glutamax and 15% fetal calf serum (Life Technology). Necroptosis was induced by addition of 10 ng/ml of human recombinant TNF-α (Life Technology). Necrostatin-1 (Nec-1, Enzo Life Sciences) was used as model necroptosis inhibitor. Cells were maintained in 75 cm^2 flask and passed every 2 or 3 days. Chemical collections analysed were formatted in 96-well plates with 80 molecules per plates at 10 mM in 100% DMSO. For each collection plate, 2 cell plates were seeded (one necroptosis-induced with TNF-α and the other without TNF-α). Cells were seeded at 20000 cells/well, in 40 μl of medium, in a 96-well clear, flat bottom plate (CytoOne, Starlab) before treatment. Then, 40 μl of medium with or without TNF-α at 25 ng/ml were added to all wells in the corresponding plate. Immediately after TNF-α addition, 20 μl of diluted compound at 50 μM were added to the plates. Final concentration of each chemical compound was 10 μM at 0.1% DMSO. Four positives (Nec-1 at 10 μM final) and four negative (DMSO) controls were used in each plate to validate the assay. Cells were incubated at 37° C., 5% CO2 for 24 hours before performing MTS viability assay, described hereafter. Compounds were diluted before to treat cells. Liquid handling was performed using the Nimbus Microlab liquid handler (Hamilton Robotics) under microbiological safety workbench. The 10 mM compounds were diluted at 50 μM directly in cell medium.

[2] = target: ABL1(H396P)-nonphosphorylated (Homo sapiens, UniProt P00519, H396P); assay: Competition binding assay for kinase targets of Sib (456 kinases); settings: remaining kinase on the matrix after competition, read-out: Percent Control (%)
Experimental: (§1) The assay is performed by combining three components: DNA-tagged kinase (a total of 456 kinases were tested); immobilized ligand; and a test compound (here Sib). The ability of Sib to compete with the immobilized ligand is measured via quantitative PCR of the DNA tag.

AURKC = target: T1, AURKC (Homo sapiens, UniProt Q9UQB9); assay: as above; settings: remaining kinase on the matrix after competition, read-out: Percent Control (%)
T1 sequence (Q9UQB9 1-309): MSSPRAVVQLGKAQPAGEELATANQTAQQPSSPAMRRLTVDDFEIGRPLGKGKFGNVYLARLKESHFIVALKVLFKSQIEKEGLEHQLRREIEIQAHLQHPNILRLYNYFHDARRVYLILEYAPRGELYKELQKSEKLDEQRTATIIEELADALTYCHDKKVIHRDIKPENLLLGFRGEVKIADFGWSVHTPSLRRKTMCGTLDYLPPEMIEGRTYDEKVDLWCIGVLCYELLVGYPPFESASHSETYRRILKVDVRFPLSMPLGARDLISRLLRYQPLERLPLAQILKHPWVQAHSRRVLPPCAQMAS
Experimental: as §1

EPHB6 = target: T2, EPHB6 (Homo sapiens, UniProt O15197); assay: as above; settings: remaining kinase on the matrix after competition, read-out: Percent Control (%)
T2 sequence (O15197 32-1021): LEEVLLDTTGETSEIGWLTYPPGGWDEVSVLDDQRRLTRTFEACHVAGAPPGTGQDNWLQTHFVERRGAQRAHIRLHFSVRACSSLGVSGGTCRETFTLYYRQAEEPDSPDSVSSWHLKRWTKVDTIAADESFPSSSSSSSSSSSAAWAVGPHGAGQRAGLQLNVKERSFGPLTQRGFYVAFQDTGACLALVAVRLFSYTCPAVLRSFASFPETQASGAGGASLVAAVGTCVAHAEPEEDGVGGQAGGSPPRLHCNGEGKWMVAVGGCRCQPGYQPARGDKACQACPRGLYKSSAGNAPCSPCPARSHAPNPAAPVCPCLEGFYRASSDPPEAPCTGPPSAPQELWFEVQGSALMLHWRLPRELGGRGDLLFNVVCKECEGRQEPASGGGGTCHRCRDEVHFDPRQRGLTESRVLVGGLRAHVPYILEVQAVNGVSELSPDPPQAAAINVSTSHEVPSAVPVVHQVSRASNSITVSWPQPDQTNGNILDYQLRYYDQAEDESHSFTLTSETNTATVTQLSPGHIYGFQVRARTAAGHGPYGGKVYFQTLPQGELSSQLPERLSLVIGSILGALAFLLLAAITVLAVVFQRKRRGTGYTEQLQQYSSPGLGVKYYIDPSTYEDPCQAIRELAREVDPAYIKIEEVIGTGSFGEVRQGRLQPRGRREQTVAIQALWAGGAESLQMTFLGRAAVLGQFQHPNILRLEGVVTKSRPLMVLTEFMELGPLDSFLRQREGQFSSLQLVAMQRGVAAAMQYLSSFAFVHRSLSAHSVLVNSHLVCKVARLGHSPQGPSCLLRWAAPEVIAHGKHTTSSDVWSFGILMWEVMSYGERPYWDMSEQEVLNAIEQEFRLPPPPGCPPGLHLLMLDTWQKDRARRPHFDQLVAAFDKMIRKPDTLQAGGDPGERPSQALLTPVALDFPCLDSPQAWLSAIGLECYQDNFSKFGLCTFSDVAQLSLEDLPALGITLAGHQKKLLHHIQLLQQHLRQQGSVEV
Experimental: as §1

KIT(V559D) = KIT(V559D) (Homo sapiens, UniProt P10721, V559D); assay: as above; settings: remaining kinase on the matrix after competition, read-out: Percent Control (%)
Sequence of KIT(V559D) (P10721 26-976 V559D): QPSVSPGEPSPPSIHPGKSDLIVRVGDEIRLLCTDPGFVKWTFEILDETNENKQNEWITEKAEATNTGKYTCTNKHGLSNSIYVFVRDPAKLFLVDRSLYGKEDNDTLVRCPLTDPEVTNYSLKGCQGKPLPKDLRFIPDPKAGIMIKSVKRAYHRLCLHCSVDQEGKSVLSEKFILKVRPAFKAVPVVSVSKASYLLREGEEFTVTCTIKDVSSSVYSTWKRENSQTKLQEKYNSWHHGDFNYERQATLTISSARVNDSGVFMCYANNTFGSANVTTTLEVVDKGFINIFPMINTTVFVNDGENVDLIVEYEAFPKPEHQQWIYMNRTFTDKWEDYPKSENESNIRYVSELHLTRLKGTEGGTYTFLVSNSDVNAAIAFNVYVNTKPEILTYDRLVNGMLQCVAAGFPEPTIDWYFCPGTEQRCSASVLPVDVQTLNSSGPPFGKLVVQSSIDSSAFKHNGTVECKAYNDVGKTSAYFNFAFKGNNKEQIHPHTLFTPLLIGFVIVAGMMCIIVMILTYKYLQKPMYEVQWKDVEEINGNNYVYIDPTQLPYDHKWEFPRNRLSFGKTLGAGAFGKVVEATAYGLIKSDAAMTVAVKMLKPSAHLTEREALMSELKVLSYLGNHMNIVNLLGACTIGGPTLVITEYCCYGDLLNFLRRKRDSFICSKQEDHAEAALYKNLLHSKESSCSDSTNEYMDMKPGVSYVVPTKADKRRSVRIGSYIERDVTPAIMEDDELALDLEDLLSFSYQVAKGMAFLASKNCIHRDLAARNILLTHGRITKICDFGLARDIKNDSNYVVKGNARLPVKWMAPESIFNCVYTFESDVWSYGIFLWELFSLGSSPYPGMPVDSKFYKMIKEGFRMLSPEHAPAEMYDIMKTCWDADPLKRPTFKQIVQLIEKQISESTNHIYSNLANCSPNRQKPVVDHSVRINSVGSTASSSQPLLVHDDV
Experimental: as §1

PDGFRB = PDGFRB (Homo sapiens, UniProt P09619); assay: as above; settings: remaining kinase on the matrix after competition, read-out: Percent Control (%)
Sequence of PDGFRB (P09619 33-1106): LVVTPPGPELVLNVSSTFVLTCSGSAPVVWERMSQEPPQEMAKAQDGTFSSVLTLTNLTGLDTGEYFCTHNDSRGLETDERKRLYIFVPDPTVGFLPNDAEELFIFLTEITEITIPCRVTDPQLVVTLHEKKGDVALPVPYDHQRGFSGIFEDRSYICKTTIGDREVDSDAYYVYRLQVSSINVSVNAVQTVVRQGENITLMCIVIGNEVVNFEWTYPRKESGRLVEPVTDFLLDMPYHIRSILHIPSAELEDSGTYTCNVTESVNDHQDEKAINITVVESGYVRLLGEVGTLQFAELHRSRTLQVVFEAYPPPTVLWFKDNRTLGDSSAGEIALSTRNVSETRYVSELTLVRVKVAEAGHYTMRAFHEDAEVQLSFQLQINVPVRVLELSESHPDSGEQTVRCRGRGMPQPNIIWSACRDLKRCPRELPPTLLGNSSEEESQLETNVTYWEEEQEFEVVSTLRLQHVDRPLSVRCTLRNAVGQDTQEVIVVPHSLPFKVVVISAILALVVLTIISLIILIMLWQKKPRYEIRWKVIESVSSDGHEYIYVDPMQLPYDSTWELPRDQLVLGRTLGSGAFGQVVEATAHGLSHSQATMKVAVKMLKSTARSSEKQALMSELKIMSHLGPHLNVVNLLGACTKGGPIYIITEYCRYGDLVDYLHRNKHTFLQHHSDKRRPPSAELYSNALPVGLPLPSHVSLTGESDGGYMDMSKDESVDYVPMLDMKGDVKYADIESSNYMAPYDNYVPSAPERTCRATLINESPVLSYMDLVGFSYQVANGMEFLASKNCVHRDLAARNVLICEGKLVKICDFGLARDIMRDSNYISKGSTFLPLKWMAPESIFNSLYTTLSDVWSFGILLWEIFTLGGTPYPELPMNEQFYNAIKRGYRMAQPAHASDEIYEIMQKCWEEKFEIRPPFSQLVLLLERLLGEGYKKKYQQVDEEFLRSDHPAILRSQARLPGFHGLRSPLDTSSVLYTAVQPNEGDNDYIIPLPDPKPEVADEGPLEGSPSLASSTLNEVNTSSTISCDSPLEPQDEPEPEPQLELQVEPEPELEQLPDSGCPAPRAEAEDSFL
Experimental: as §1

[3] = tested on: Jurkat Fadd deficient cells; assay: Delayed treatment of Sib on TNF-induced necroptotic cell-death; type: cell-based, human; settings: 10 μM added 1 h, 2 h, 3 h or 4 h after TNF-α (10 ng/ml); cell death after 24 h
Experimental: Jurkat Fadd deficient cells are treated with TNF-α (10 ng/ml) then treated with Sib (10 μM) at 1 h, 2 h, 3 h or 4 h after adding TNF-α. % of cell death is determined after 24 h and calculated by a FACS analysis of Propidium Iodide-stained nuclei. Quantitative analysis of three independent experiments with means±SD.

remaining binding at 10 µM [2]: 1%
remaining binding at 10 µM (AURKC): 0.7%
remaining binding at 10 µM (EPHB6): 0.65%
remaining binding at 10 µM (KIT(V559D)): 0.4%
remaining binding at 10 µM (PDGFRB): 0.75%
SMILES: Oc1ccc(-c2cc3cccnc3[nH]2)cc1 [compound 2, 4-(1H-pyrrolo[2,3-b]pyridin-2-yl)phenol]
EC50 ([1]; Homo sapiens, Jurkat, necroptosis induced by 10 ng/ml TNF-α, 24 hours, MTS viability): 1300 nM
inhibition of necroptosis induced by TNF-α (figure legend) ([1]; human T lymphocyte, Jurkat FADD deficient cell line): dose-dependent inhibition
effect on necroptotic cell-death with delayed treatment [3]: inhibits the necroptotic cell-death
